Results as given in article PMC6444347 (Nature chemistry, 2019).
Positions count from the first letter of the chain named.

How the values were obtained:
[1] = biological target: T1, PBP4 (Staphylococcus aureus, UniProt P72355); test: fluorogenic D,D-transpeptidation assay with Rf470DL, dose-response; format: biochemical
T1 sequence (P72355 25-431): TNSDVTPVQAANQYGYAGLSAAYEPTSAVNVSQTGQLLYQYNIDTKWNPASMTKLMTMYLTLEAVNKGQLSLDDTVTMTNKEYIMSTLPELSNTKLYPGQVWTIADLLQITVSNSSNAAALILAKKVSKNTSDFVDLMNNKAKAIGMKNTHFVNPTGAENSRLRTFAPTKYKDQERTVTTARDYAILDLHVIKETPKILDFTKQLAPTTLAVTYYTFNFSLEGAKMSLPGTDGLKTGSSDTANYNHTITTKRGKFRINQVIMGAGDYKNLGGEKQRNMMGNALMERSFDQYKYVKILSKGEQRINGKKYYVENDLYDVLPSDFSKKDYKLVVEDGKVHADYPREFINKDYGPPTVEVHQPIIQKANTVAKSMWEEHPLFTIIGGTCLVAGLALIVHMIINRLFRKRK

[2] = biological target: T2, PBP4 (Staphylococcus aureus, UniProt A0A0H2WY27); test: Nitrocefin hydrolysis; format: biochemical
T2 sequence (A0A0H2WY27 25-431): T1 sequence (P72355 25-431) with L210H

Row | IC50 [1] | SMILES | Nitrocefin hydrolysis (β-lactamase activity) competition assay [2]
1 | ~2340 nM | CO[C@@]1(NC(=O)Cc2cccs2)C(=O)N2C(C(=O)O)=C(COC(N)=O)CS[C@@H]21 [Cefoxitin] | 
2 |  | O=C(Cc1cccs1)N[C@@H]1C(=O)N2C(C(=O)O)=C(/C=C/c3ccc([N+](=O)[O-])cc3[N+](=O)[O-])CS[C@H]12 [Nitrocefin] | in the presence of Cefoxitin or Carbenicillin, Nitrocefin hydrolysis was strongly inhibited
